From US5376688A, “Enhanced solubility pharmaceutical solutions” (R. P. Scherer Corporation, priority 1992, dated 1994)
Where a SMILES comes first, the peptide text is derived from it.

Assays:
[1] = Saturated ibuprofen solutions: solubility (weight percent) with potassium hydroxide
[2] = Saturated aspartame solutions: solubility with hydrochloric acid; type: physicochemical; settings: for ASPARTAME SOLUBILITY (%): saturated solution
Source text: The following saturated aspartame solutions were made using aspartame for a model for an amphoteric pharmaceutical agent. […] These solutions are suitable for filling into soft gelatin capsules.

[3] = Saturated aspartame solutions: solubility with potassium hydroxide; type: physicochemical; settings: for ASPARTAME SOLUBILITY (%): saturated solution
Description: The following saturated aspartame solutions were prepared, using aspartame as a model of an amphoteric pharmaceutical agent. These solutions contain the indicated amount of aspartame, the indicated solvent and the indicated amount of potassium hydroxide. […] The solutions were suitable for filling into soft gelatin capsules.

CC(C)Cc1ccc(C(C)C(=O)O)cc1 (stereo not shown) [ibuprofen]
IBUPROFEN SOLUBILITY (%) ([1]; solvent LABRASOL, mole equivalent hydroxide 0, saturated solution): 25.0%
IBUPROFEN SOLUBILITY (%) ([1]; solvent LABRASOL, mole equivalent hydroxide (KOH) 0.25, saturated solution): 40.0%
IBUPROFEN SOLUBILITY (%) ([1]; solvent LABRASOL, mole equivalent hydroxide (KOH) 0.5, saturated solution): 45.0%
IBUPROFEN SOLUBILITY (%) ([1]; solvent LABRASOL, mole equivalent hydroxide (KOH) 0.75, saturated solution): 42.5%
IBUPROFEN SOLUBILITY (%) ([1]; solvent LABRASOL, mole equivalent hydroxide (KOH) 1.0, saturated solution): 40.0%
IBUPROFEN SOLUBILITY (%) ([1]; solvent PLUROL OLEIQUE, mole equivalent hydroxide 0, saturated solution): 15.0%
IBUPROFEN SOLUBILITY (%) ([1]; solvent PLUROL OLEIQUE, mole equivalent hydroxide (KOH) 0.5, saturated solution): 30.0%
IBUPROFEN SOLUBILITY (%) ([1]; solvent PLURONIC L62, mole equivalent hydroxide 0, saturated solution): 10.0%
IBUPROFEN SOLUBILITY (%) ([1]; solvent PLURONIC L62, mole equivalent hydroxide (KOH) 0.25, saturated solution): 15.0%
IBUPROFEN SOLUBILITY (%) ([1]; solvent PLURONIC L62, mole equivalent hydroxide (KOH) 0.5, saturated solution): 20.0%
IBUPROFEN SOLUBILITY (%) ([1]; solvent PLURONIC L62, mole equivalent hydroxide (KOH) 0.75, saturated solution): 27.5%
IBUPROFEN SOLUBILITY (%) ([1]; solvent PLURONIC L62, mole equivalent hydroxide (KOH) 1.0, saturated solution): 30.0%
IBUPROFEN SOLUBILITY (%) ([1]; solvent TRANSCUTOL, mole equivalent hydroxide 0, saturated solution): 42.5%
IBUPROFEN SOLUBILITY (%) ([1]; solvent TRANSCUTOL, mole equivalent hydroxide (KOH) 0.25, saturated solution): 55.0%
IBUPROFEN SOLUBILITY (%) ([1]; solvent TRANSCUTOL, mole equivalent hydroxide (KOH) 0.5, saturated solution): 60.0%
IBUPROFEN SOLUBILITY (%) ([1]; solvent TRANSCUTOL, mole equivalent hydroxide (KOH) 0.75, saturated solution): 52.5%
IBUPROFEN SOLUBILITY (%) ([1]; solvent TRANSCUTOL, mole equivalent hydroxide (KOH) 1.0, saturated solution): 52.5%

COC(=O)[C@H](Cc1ccccc1)NC(=O)[C@@H](N)CC(=O)O [aspartame] (H-Asp-Phe-OMe)
enhanced solubility (in words) ([2]; hydrochloric acid, each solvent): enhanced solubility was noted
ASPARTAME SOLUBILITY (%) ([2]; solvent LABRASOL, mole equivalent acid 0): 0.30%
ASPARTAME SOLUBILITY (%) ([2]; solvent LABRASOL, mole equivalent acid (HCl) 50 (so in the source)): 0.50%
ASPARTAME SOLUBILITY (%) ([2]; solvent PLURONIC L62, mole equivalent acid 0): 0.045%
ASPARTAME SOLUBILITY (%) ([2]; solvent PLURONIC L62, mole equivalent acid (HCl) 50 (so in the source)): 0.095%
ASPARTAME SOLUBILITY (%) ([2]; solvent TRANSCUTOL, mole equivalent acid 0): 0.43%
ASPARTAME SOLUBILITY (%) ([2]; solvent TRANSCUTOL, mole equivalent acid (HCl) 50 (so in the source)): 0.91%
enhanced solubility (in words) ([3]; potassium hydroxide, except for Pluronic L62): showed enhanced solubility in the presence of the hydroxide species
ASPARTAME SOLUBILITY (%) ([3]; solvent LABRASOL, mole equivalent hydroxide 0): 0.30%
ASPARTAME SOLUBILITY (%) ([3]; solvent LABRASOL, mole equivalent hydroxide (KOH) 0.50): 0.60%
ASPARTAME SOLUBILITY (%) ([3]; solvent PLURONIC L62, mole equivalent hydroxide 0): 0.045%
ASPARTAME SOLUBILITY (%) ([3]; solvent PLURONIC L62, mole equivalent hydroxide (KOH) 0.50): 0.045%
ASPARTAME SOLUBILITY (%) ([3]; solvent TRANSCUTOL, mole equivalent hydroxide 0): 0.43%
ASPARTAME SOLUBILITY (%) ([3]; solvent TRANSCUTOL, mole equivalent hydroxide (KOH) 0.50): 0.68%
